Columns and labels:
Test in all cases: relative viability (nuclei count vs DMSO), 5 days (fraction); higher = more cells survive
[1] = system: LCLC-97TM1
Summary of the method: (§1)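 Lung cancer cell lines in 1536-well plates were dosed by pin tool the day after seeding, either with one drug alone or with a fixed anchor-drug dose plus five library-drug doses (not always all listed) in √10 steps. After 5 days, cells were fixed and their nuclei stained in one step (final 0.05% Triton X-100, 1% formaldehyde, 1 ug/ml Hoechst), then counted on 4× images. Relative viability is the nuclei count in treated wells divided by that in vehicle wells. Values are medians of duplicate plates.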

[2] = system: NCI-H2126
Summary of the method: as §1

[3] = system: NCI-H1915
Summary of the method: as §1

[4] = system: LC-2-ad
Summary of the method: as §1

[5] = system: NCI-H2347
Summary of the method: as §1

[6] = system: NCI-H1666
Summary of the method: as §1

[7] = system: EPLC-272H
Summary of the method: as §1

[8] = system: PC-14
Summary of the method: as §1

[9] = system: NCI-H2405
Summary of the method: as §1

[10] = system: ChaGo-K-1
Summary of the method: as §1

[11] = system: RERF-LC-KJ
Summary of the method: as §1

[12] = system: HCC-78
Summary of the method: as §1

[13] = system: NCI-H647
Summary of the method: as §1

[14] = system: NCI-H650
Summary of the method: as §1

[15] = system: H3255
Summary of the method: as §1

[16] = system: COR-L 105
Summary of the method: as §1

[17] = system: NCI-H2087
Summary of the method: as §1

[18] = system: 201T
Summary of the method: as §1

[19] = system: NCI-H520
Summary of the method: as §1

[20] = system: HCC-827
Summary of the method: as §1

[21] = system: NCI-H322M
Summary of the method: as §1

[22] = system: NCI-H661
Summary of the method: as §1

[23] = system: NCI-H23
Summary of the method: as §1

NC(=O)Nc1cc(-c2cccc(F)c2)sc1C(=O)N[C@H]1CCCNC1 [AZD7762] + COc1cccc2cc(-c3nc([C@H]4CC[C@H](C(=O)O)CC4)n4ncnc(N)c34)[nH]c12 [OSI-027] (partner 0.5 µM)
relative viability ([1]; first compound 0.01 µM): 0.582 | relative viability ([1]; first compound 0.03162 µM): 0.577 | relative viability ([1]; first compound 0.1 µM): 0.511 | relative viability ([1]; first compound 0.3162 µM): 0.617 | relative viability ([1]; first compound 1 µM): 0.44 | relative viability ([2]; first compound 0.01 µM): 0.735 | relative viability ([2]; first compound 0.03162 µM): 0.772 | relative viability ([2]; first compound 0.1 µM): 0.783 | relative viability ([2]; first compound 0.3162 µM): 0.871 | relative viability ([2]; first compound 1 µM): 0.807 | relative viability ([3]; first compound 0.01 µM): 0.629 | relative viability ([3]; first compound 0.03162 µM): 0.635 | relative viability ([3]; first compound 0.1 µM): 0.64 | relative viability ([3]; first compound 0.3162 µM): 0.638 | relative viability ([3]; first compound 1 µM): 0.571 | relative viability ([4]; first compound 0.01 µM): 0.911 | relative viability ([4]; first compound 0.03162 µM): 1 | relative viability ([4]; first compound 0.1 µM): 0.816 | relative viability ([4]; first compound 0.3162 µM): 0.8 | relative viability ([4]; first compound 1 µM): 0.543 | relative viability ([5]; first compound 0.01 µM): 0.433 | relative viability ([5]; first compound 0.03162 µM): 0.529 | relative viability ([5]; first compound 0.1 µM): 0.412 | relative viability ([5]; first compound 0.3162 µM): 0.395 | relative viability ([5]; first compound 1 µM): 0.356 | relative viability ([6]; first compound 0.01 µM): 0.981 | relative viability ([6]; first compound 0.03162 µM): 0.921 | relative viability ([6]; first compound 0.1 µM): 1.03 | relative viability ([6]; first compound 0.3162 µM): 0.858 | relative viability ([6]; first compound 1 µM): 0.771 | relative viability ([7]; first compound 0.01 µM): 0.299 | relative viability ([7]; first compound 0.03162 µM): 0.332 | relative viability ([7]; first compound 0.1 µM): 0.271 | relative viability ([7]; first compound 0.3162 µM): 0.27 | relative viability ([7]; first compound 1 µM): 0.115 | relative viability ([8]; first compound 0.01 µM): 0.847 | relative viability ([8]; first compound 0.03162 µM): 0.816 | relative viability ([8]; first compound 0.1 µM): 0.734 | relative viability ([8]; first compound 0.3162 µM): 0.287 | relative viability ([8]; first compound 1 µM): 0.0799 | relative viability ([9]; first compound 0.01 µM): 0.608 | relative viability ([9]; first compound 0.03162 µM): 0.676 | relative viability ([9]; first compound 0.1 µM): 0.623 | relative viability ([9]; first compound 0.3162 µM): 0.664 | relative viability ([9]; first compound 1 µM): 0.455 | relative viability ([10]; first compound 0.01 µM): 0.622 | relative viability ([10]; first compound 0.03162 µM): 0.631 | relative viability ([10]; first compound 0.1 µM): 0.56 | relative viability ([10]; first compound 0.3162 µM): 0.643 | relative viability ([10]; first compound 1 µM): 0.554 | relative viability ([11]; first compound 0.01 µM): 0.587 | relative viability ([11]; first compound 0.03162 µM): 0.668 | relative viability ([11]; first compound 0.1 µM): 0.77 | relative viability ([11]; first compound 0.3162 µM): 0.666 | relative viability ([11]; first compound 1 µM): 0.499 | relative viability ([12]; first compound 0.01 µM): 0.43 | relative viability ([12]; first compound 0.03162 µM): 0.452 | relative viability ([12]; first compound 0.1 µM): 0.453 | relative viability ([12]; first compound 0.3162 µM): 0.357 | relative viability ([12]; first compound 1 µM): 0.346 | relative viability ([13]; first compound 0.01 µM): 0.656 | relative viability ([13]; first compound 0.03162 µM): 0.55 | relative viability ([13]; first compound 0.1 µM): 0.714 | relative viability ([13]; first compound 0.3162 µM): 0.6 | relative viability ([13]; first compound 1 µM): 0.172 | relative viability ([14]; first compound 0.01 µM): 0.549 | relative viability ([14]; first compound 0.03162 µM): 0.542 | relative viability ([14]; first compound 0.1 µM): 0.537 | relative viability ([14]; first compound 0.3162 µM): 0.509 | relative viability ([14]; first compound 1 µM): 0.614 | relative viability ([15]; first compound 0.01 µM): 0.572 | relative viability ([15]; first compound 0.03162 µM): 0.506 | relative viability ([15]; first compound 0.1 µM): 0.534 | relative viability ([15]; first compound 0.3162 µM): 0.629 | relative viability ([15]; first compound 1 µM): 0.607 | relative viability ([16]; first compound 0.01 µM): 0.636 | relative viability ([16]; first compound 0.03162 µM): 0.821 | relative viability ([16]; first compound 0.1 µM): 0.543 | relative viability ([16]; first compound 0.3162 µM): 0.472 | relative viability ([16]; first compound 1 µM): 0.406 | relative viability ([17]; first compound 0.01 µM): 0.474 | relative viability ([17]; first compound 0.03162 µM): 0.653 | relative viability ([17]; first compound 0.1 µM): 0.681 | relative viability ([17]; first compound 0.3162 µM): 0.883 | relative viability ([17]; first compound 1 µM): 0.779 | relative viability ([18]; first compound 0.01 µM): 0.795 | relative viability ([18]; first compound 0.03162 µM): 0.779 | relative viability ([18]; first compound 0.1 µM): 0.703 | relative viability ([18]; first compound 0.3162 µM): 0.423 | relative viability ([18]; first compound 1 µM): 0.254 | relative viability ([19]; first compound 0.01 µM): 0.294 | relative viability ([19]; first compound 0.03162 µM): 0.246 | relative viability ([19]; first compound 0.1 µM): 0.246 | relative viability ([19]; first compound 0.3162 µM): 0.243 | relative viability ([19]; first compound 1 µM): 0.16 | relative viability ([20]; first compound 0.01 µM): 0.787 | relative viability ([20]; first compound 0.03162 µM): 0.802 | relative viability ([20]; first compound 0.1 µM): 0.863 | relative viability ([20]; first compound 0.3162 µM): 0.875 | relative viability ([20]; first compound 1 µM): 0.537 | relative viability ([21]; first compound 0.01 µM): 0.555 | relative viability ([21]; first compound 0.03162 µM): 0.581 | relative viability ([21]; first compound 0.1 µM): 0.562 | relative viability ([21]; first compound 0.3162 µM): 0.254 | relative viability ([21]; first compound 1 µM): 0.255 | relative viability ([22]; first compound 0.01 µM): 0.731 | relative viability ([22]; first compound 0.03162 µM): 0.717 | relative viability ([22]; first compound 0.1 µM): 0.616 | relative viability ([22]; first compound 0.3162 µM): 0.559 | relative viability ([22]; first compound 1 µM): 0.319 | relative viability ([23]; first compound 0.01 µM): 0.556 | relative viability ([23]; first compound 0.03162 µM): 0.567 | relative viability ([23]; first compound 0.1 µM): 0.652 | relative viability ([23]; first compound 0.3162 µM): 0.566 | relative viability ([23]; first compound 1 µM): 0.288

Source: the supplement of paper PMC10307832
